# Test results: US20240166643A1, “IMIDAZO[1,2-A]PYRIDINE COMPOUNDS AND THEIR USE IN THERAPY” (Imperial College Innovations Limited, priority 2020, published 2024)
# Where two headings read alike, the source gives them in different places. Marks after values point to notes of the source that are not given here.
# Columns and labels:
# [1] = tested on: P. falciparum Pf3D7^0087/N9; assay: Mouse malaria model, NODscidIL2Rγnull mice engrafted with human erythrocytes; conditions: for average parasitemia values: 50 mg/kg po per day on day 3, 4, 5 and 6 post-infection
# Source text: Assay (h): Mouse Malaria Model Protocol
# The goal of this study was to evaluate the efficacy of compounds of the invention against P. falciparum Pf3D7^0087/N9 in NODscidIL2Rγ^null mice engrafted with human erythrocytes.
# Mice were euthanized on day 7.
# [2] = target: Plasmodium vivax (Pv) NMT (Plasmodium vivax (strain Salvador I), UniProt A5K1A2); assay: biochemical
# Plasmodium vivax (Pv) NMT, sequence (A5K1A2 1-410): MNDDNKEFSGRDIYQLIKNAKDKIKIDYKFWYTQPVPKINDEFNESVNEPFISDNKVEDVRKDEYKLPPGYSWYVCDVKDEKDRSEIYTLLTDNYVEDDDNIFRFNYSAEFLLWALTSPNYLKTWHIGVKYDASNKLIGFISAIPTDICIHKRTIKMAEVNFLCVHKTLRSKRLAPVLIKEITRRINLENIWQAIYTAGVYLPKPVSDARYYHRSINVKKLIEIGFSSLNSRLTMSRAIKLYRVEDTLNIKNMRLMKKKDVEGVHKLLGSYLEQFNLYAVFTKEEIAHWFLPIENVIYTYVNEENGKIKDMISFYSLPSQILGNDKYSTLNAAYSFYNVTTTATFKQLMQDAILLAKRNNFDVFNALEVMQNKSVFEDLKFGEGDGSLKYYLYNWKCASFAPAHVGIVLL
# [3] = tested on: Plasmodium falciparum strain NF54; assay: SYBR Green assay, Plasmodium falciparum strain NF54; conditions: NF54, read-out: Pf EC50 strain NF54
# Procedure: EC50 values for Plasmodium falciparum (Pf) NMT strain 3D7 or NF54 were measured for certain compounds of the invention using an assay utilising SYBR Green dye. The assay for NMT strain 3D7 was carried out as follows:
# A similar protocol was used to determine activity against Plasmodium falciparum strain NF54.
# Human NMT1 (HsNMT1) = Human NMT1 (HsNMT1) (Homo sapiens, UniProt P30419); assay: biochemical
# Human NMT1 (HsNMT1), sequence (P30419 whole entry, looked up): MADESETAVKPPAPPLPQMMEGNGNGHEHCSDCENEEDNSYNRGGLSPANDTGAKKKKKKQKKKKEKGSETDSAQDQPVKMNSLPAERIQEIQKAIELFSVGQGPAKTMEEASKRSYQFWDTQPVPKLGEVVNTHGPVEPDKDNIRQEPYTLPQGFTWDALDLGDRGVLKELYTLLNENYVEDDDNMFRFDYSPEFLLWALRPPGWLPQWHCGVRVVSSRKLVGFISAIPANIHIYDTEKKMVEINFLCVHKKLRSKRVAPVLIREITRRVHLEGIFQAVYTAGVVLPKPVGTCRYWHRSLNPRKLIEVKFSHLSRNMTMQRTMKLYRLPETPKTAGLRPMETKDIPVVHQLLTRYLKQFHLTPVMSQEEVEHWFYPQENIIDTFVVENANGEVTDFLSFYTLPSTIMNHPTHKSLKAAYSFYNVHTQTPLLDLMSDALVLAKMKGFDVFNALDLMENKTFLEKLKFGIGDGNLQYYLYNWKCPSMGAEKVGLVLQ
# [4] = tested on: Plasmodium falciparum 3D7; assay: SYBR Green assay, Plasmodium falciparum strain 3D7; type: cell-based; conditions: P. falciparum strain 3D7, 96 h incubation, read-out: Pf EC50 strain 3D7
# in vitro = conditions: male, Sprague-Dawley, rat, pooled cryopreserved rat hepatocytes, pH 7.4
# Procedure: Assay (e): Rat Hepatocyte Half Life
# Certain example compound of the present invention were tested for metabolic stability in rat metabolic assays using hepatocytes derived from pooled male Sprague-Dawley rats.
# Frozen pooled rat hepatocytes obtained from LifeTechnologies were thawed and purified according to the manufacturer's instructions. The test compound (4 mM) in DMSO was diluted with acetonitrile to provide a 100 μM sub-stock then further diluted with pH 7.4 Krebs-Henseleit buffer (supplemented with CaCl2, NaHCO3, HEPES, fructose and glycine) to provide a 2 μM working solution. 25 μL of working solution was incubated at 37° C., treated with 25 μL of rat hepatocyte suspension (containing 1×10^6 cells/mL) and incubated at 37° C. with 5% CO2 level at 95% relative humidity. Wells were incubated for an appropriate time (0, 15, 30, 45, 60 and 75 min) then quenched with 250 μL of acetonitrile containing reference standards diltiazem, 7-ethoxycoumarin and propranolol). The plates were shaken, sonicated for 5 min then cooled to 4° C. until all sampling was complete. All plates were centrifuged at 4000 rpm for 20 min to pellet the debris. 110 μL supernatant was diluted 110 μL water and quantitated using LC-MS/MS.
# A linear regression curve was fitted to a plot of natural logarithm (In) of AUC against time. The T-half (min)=0.693/slope
# [5] = Rat clearance and bioavailability (iv and oral dosing); type: in vivo; conditions: male, Sprague-Dawley, plasma; for half-life: iv 1 mg/kg, read-out: Rat iv t1/2 (converted)
# [6] = oral 5 mg/kg, cassette dosing of 4 compounds
SMILES,IC50 [2] [nM],EC50 [3] [nM],IC50 (Human NMT1 (HsNMT1)) [nM],EC50 [4] [nM],half-life at 1 µM (in vitro) [h],other results
"CCN(CC)CCCC(C)Nc1ccnc2cc(Cl)ccc12 (stereo not shown) [Chloroquine (CQ), chloroquine, reference compound]",–,–,–,–,–,average parasitemia values ([1]; day 0 post infection): 0.01%; average parasitemia values ([1]; day 3 post infection): 0.80%; average parasitemia values ([1]; day 4 post infection): 0.24%; average parasitemia values ([1]; day 5 post infection): 0.05%; average parasitemia values ([1]; day 6 post infection): 0.01%; average parasitemia values ([1]; day 7 post infection): 0.00* %
O=C(NCc1cnc2ccccn12)C1CN(c2nc(N3CCCNCC3)ncc2F)C1 [Example 6],130,> 10000,–,–,–,–
COc1cnc(N2CCCNCC2)nc1N1CC(C(=O)NCc2cnc3ccccn23)C1 [Example 19],59,3600,–,–,–,–
O=C(NCc1cnc2cc(Cl)ccn12)C1CN(c2nc(N3CCCNCC3)ncc2Cl)C1 [Example 22],3.8,450,–,–,–,–
O=C(NCc1cnc2ccccn12)C1CN(c2nc(N3CCNCC3)ncc2Cl)C1 [Example 25],15,1090,–,–,–,–
C[C@H]1CN(c2ncc(F)c(N3CC(C(=O)NCc4cnc5ccccn45)C3)n2)CCN1 [Example 26],240,> 2330,–,–,–,–
C[C@H]1CN(c2ncc(Cl)c(N3CC(C(=O)NCc4cnc5ccccn45)C3)n2)CCN1 [Example 27],37,2820,–,–,–,–
CC1CN(c2ncc(F)c(N3CC(C(=O)NCc4cnc5ccccn45)C3)n2)CCN1 (stereo not shown) [Example 28],95,3040,–,–,–,–
COc1cnc(N2CCN[C@H](C)C2)nc1N1CC(C(=O)NC(C)(C)c2cnc3ccccn23)C1 [Example 36],6.2,12,–,–,–,–
COc1cnc(N2CCN[C@@H](C)C2)nc1N1CC(C(=O)NC(C)(C)c2cnc3ccccn23)C1 [Example 39],12,85,–,–,–,–
C[C@@H]1CN(c2ncc(F)c(N3CC(C(=O)NC(C)(C)c4cnc5ccccn45)C3)n2)C[C@H](C)N1 [Example 44],32,–,120,540,> 3,–
CN1CCCN(c2ncc(F)c(N3CC(C(=O)NCc4cnc5ccccn45)C3)n2)CC1 [Example 52],47,> 10000,–,–,–,–
CC(C)N1CCN(c2ncc(Cl)c(N3CC(C(=O)NC(C)(C)c4cnc5ccccn45)C3)n2)CC1 [Example 71],11,–,72,560,> 3,–
COCCN1CCN(c2ncc(Cl)c(N3CC(C(=O)NC(C)(C)c4cnc5ccccn45)C3)n2)CC1 [Example 72],7.7,–,82,> 590,> 3,"half-life ([5]; cassette dosing of 4 compounds): 2.7 h; bioavailability [5, 6]: 34%"
CN1CCN(c2ncc(Cl)c(N3CC(C(=O)N(C)C(C)(C)c4cnc5ccccn45)C3)n2)CC1 [Example 73],–,–,–,810,> 3,"half-life ([5]; cassette dosing of 4 compounds): 3.6 h; bioavailability [5, 6]: 65%"
CC1CN(c2ncc(Cl)c(N3CC(C(=O)N(C)C(C)(C)c4cnc5ccccn45)C3)n2)CCN1C (stereo not shown) [Example 74],–,–,–,120,> 3,"half-life ([5]; administered as a single compound): 2.2 h; bioavailability ([5]; oral 10 mg/kg, administered as a single compound): 28%"
CN1CCN(c2ncc(F)c(N3CC(C(=O)N(C)C(C)(C)c4cnc5ccccn45)C3)n2)CC1 [Example 78],120,–,400,> 1000,> 3,"half-life ([5]; cassette dosing of 4 compounds): 2.3 h; bioavailability [5, 6]: 73%"
COCC1CN(c2ncc(Cl)c(N3CC(C(=O)NC(C)(C)c4cnc5ccccn45)C3)n2)CCN1C (stereo not shown) [Example 80],7.9,–,23,97,0.743,–
"C[C@@H]1CN(c2ncc(F)c(N3CC(C(=O)NC(C)(C)c4cnc5ccccn45)C3)n2)CCN1C [Example 84, 1-{2-[(3R)-3,4-dimethylpiperazin-1-yl]-5-fluoropyrimidin-4-yl}-N-(2-{imidazo[1,2-a]pyridin-3-yl}propan-2-yl)azetidine-3-carboxamide]",4.6,–,33,34,2.41,–
"COc1cnc(N2CCN(C)[C@@H](C)C2)nc1N1CC(C(=O)NC(C)(C)c2cnc3ccccn23)C1 [Example 85, 1-{2-[(3S)-3,4-dimethylpiperazin-1-yl]-5-methoxypyrimidin-4-yl}-N-(2-{imidazo[1,2-a]pyridin-3-yl}propan-2-yl)azetidine-3-carboxamide]",8,–,6.3,14,> 3,–
"C[C@@H]1CN(c2ncc(Cl)c(N3CC(C(=O)NC(C)(C)c4cnc5ccccn45)C3)n2)C[C@H](C)N1C [Example 89, 1-{5-chloro-2-[(3R,5S)-3,4,5-trimethylpiperazin-1-yl]pyrimidin-4-yl}-N-(2-{imidazo[1,2-a]pyridin-3-yl}propan-2-yl)azetidine-3-carboxamide]",12,–,27,88,> 3,–
"C[C@@H]1CN(c2ncc(F)c(N3CC(C(=O)NC(C)(C)c4cnc5ccccn45)C3)n2)C[C@H](C)N1C [Example 90, 1-{5-fluoro-2-[(3R,5S)-3,4,5-trimethylpiperazin-1-yl]pyrimidin-4-yl}-N-(2-{imidazo[1,2-a]pyridin-3-yl}propan-2-yl)azetidine-3-carboxamide]",19,–,94,300,> 3,–
"C[C@H]1CN(c2ncc(Cl)c(N3CC(C(=O)NC(C)(C)c4cnc5ccccn45)C3)n2)C[C@H](C)N1C [Example 95, 1-{5-chloro-2-[(3S,5S)-3,4,5-trimethylpiperazin-1-yl]pyrimidin-4-yl}-N-(2-{imidazo[1,2-a]pyridin-3-yl}propan-2-yl)azetidine-3-carboxamide]",34,–,17,150,1.51,–
"CC1CN(c2ncc(F)c(N3CC(C(=O)NC(C)(C)c4cnc5ccccn45)C3)n2)C[C@H](C)N1C (stereo partly drawn) [Example 96, 1-{5-fluoro-2-[(3S,5S)S-3,4,5-trimethylpiperazin-1-yl]pyrimidin-4-yl}-N-(2-{imidazo[1,2-a]pyridin-3-yl}propan-2-yl)azetidine-3-carboxamide]",130,–,31,> 910,> 3,–
"C[C@H]1CN(c2ncc(Cl)c(N3CCC(C(=O)NC(C)(C)c4cnc5ccccn45)CC3)n2)CCN1C [Example 101, 1-{5-chloro-2-[(3S)-3,4-dimethylpiperazin-1-yl]pyrimidin-4-yl}-N-(2-{imidazo[1,2-a]pyridin-3-yl}propan-2-yl)piperidine-4-carboxamide]",33,–,310,> 1000,1.74,"half-life ([5]; cassette dosing of 4 compounds): 5.4 h; bioavailability [5, 6]: 32%"
"C[C@H]1CN(C)CCN1c1ncc(Cl)c(N2CC(C(=O)N(C)C(C)(C)c3cnc4ccccn34)C2)n1 [Example 107, 1-{5-chloro-2-[(2S)-2,4-dimethylpiperazin-1-yl]pyrimidin-4-yl}-N-(2-{imidazo[1,2-a]pyridin-3-yl}propan-2-yl)-N-methylazetidine-3-carboxamide]",–,–,–,140,–,"half-life ([5]; cassette dosing of 4 compounds): 1.7 h; bioavailability [5, 6]: 37%"
O=C(NCc1nnc2ccccn12)C1CN(c2nc(N3CCCNCC3)ncc2Cl)C1 [Example 112],–,> 10000,319,–,–,–
"CCN(CC)CCCC(C)Nc1ccnc2cc(Cl)ccc12 (stereo not shown) [chloroquine, reference compound]",–,–,–,–,–,"mice / smears parasite free ([1]; 4×50 mg/kg p.o., day 7): parasite-free"
